From US11541028B2, “Peptide pharmaceuticals for treatment of NASH and other disorders” (Mederis Diabetes LLC, priority 2018, dated 2023)
Like-named read-outs stand apart in the source and are kept apart here.

Assays:
[1] = molecular target: T1, human GLP-1 receptor (Homo sapiens, UniProt P43220); experiment: DiscoveRx LeadHunter cellular assay, cAMP stimulation, GLP-1 receptor in CHO cells; assay type: cell-based; conditions: human GLP-1 receptor in CHO cells (DiscoveRx); read-out: EC50 cAMP GLP-1 R
T1 construct: host or cells: CHO cells

[2] = molecular target: T2, human glucagon receptor (Homo sapiens, UniProt P47871); experiment: DiscoveRx LeadHunter cellular assay, cAMP stimulation, glucagon receptor in CHO cells; assay type: cell-based
T2 construct: host or cells: CHO cells
T2 sequence (P47871 26-477): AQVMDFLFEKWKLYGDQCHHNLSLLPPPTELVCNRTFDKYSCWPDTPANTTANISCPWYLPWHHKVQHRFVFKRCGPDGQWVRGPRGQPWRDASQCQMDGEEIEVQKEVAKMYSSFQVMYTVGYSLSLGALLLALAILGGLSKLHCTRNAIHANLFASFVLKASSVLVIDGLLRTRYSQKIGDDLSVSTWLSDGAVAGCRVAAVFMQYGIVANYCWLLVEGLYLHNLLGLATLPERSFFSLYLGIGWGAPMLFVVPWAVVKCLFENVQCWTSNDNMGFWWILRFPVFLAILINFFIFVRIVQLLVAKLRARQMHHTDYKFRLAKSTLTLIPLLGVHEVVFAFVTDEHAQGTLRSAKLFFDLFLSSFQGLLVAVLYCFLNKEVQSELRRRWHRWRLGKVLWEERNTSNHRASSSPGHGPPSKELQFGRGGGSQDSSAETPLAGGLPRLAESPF

T1 sequence (P43220 24-463): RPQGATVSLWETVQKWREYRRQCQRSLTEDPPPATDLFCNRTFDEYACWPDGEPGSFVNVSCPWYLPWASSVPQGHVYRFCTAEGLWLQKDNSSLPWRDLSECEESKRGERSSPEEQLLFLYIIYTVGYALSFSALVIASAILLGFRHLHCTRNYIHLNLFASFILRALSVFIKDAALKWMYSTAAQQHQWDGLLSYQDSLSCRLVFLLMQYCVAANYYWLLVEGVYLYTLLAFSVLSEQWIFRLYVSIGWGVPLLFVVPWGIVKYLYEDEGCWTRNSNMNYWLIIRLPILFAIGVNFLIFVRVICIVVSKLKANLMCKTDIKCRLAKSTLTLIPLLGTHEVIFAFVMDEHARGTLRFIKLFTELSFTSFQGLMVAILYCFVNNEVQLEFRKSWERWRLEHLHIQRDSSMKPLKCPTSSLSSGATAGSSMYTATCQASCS

EC50 [1] [nM] | EC50 [2] [nM] | EC50 ([2]; read-out: EC50 cAMP Glucagon R, human glucagon receptor in CHO cells (DiscoveRx)) [nM] | Structure (SMILES)
0.113 | 1.9 | – | CCCCCCCCCCCCCCCCO[C@@H]1O[C@H](C(=O)NCCCC[C@H](NC(=O)[C@@H](NC(=O)[C@H](Cc2ccccc2)NC(=O)[C@H](CCC(=O)O)NC(=O)[C@@H]2CCCCNC(=O)CC[C@H](NC(=O)[C@H](CC(=O)O)NC(=O)[C@H](CC(C)C)NC(=O)[C@H](Cc3ccc(O)cc3)NC(=O)[C@H](CCCCN)NC(=O)[C@H](CO)NC(=O)[C@H](Cc3ccc(O)cc3)NC(=O)[C@H](CC(=O)O)NC(=O)[C@H](CO)NC(=O)[C@@H](NC(=O)[C@H](Cc3ccccc3)NC(=O)[C@@H](NC(=O)CNC(=O)[C@H](CCC(N)=O)NC(=O)C(C)(C)NC(=O)[C@@H](N)Cc3c[nH]cn3)[C@@H](C)O)[C@@H](C)O)C(=O)N[C@@H](CCC(N)=O)C(=O)N[C@@H](C)C(=O)N[C@@H](C)C(=O)N2)[C@@H](C)CC)C(=O)N[C@@H](Cc2c[nH]c3ccccc23)C(=O)N[C@@H](CC(C)C)C(=O)N[C@@H](CC(C)C)C(=O)N[C@@H](CCC(N)=O)C(=O)N[C@H](C(=O)NCCOCCOCCOCCOCCOCCOCCOCCOCCC(=O)O)[C@@H](C)O)[C@@H](O)[C@H](O)[C@H]1O [EU-A1647]
0.009 | 0.14 | – | CCCCCCCCO[C@@H]1O[C@H](C(=O)NCCCC[C@H](NC(=O)[C@@H](NC(=O)[C@H](Cc2ccccc2)NC(=O)[C@H](CCC(=O)O)NC(=O)[C@@H]2CCCCNC(=O)CC[C@H](NC(=O)[C@H](CC(=O)O)NC(=O)[C@H](CC(C)C)NC(=O)[C@H](Cc3ccc(O)cc3)NC(=O)[C@H](CCCCN)NC(=O)[C@H](CO)NC(=O)[C@H](Cc3ccc(O)cc3)NC(=O)[C@H](CC(=O)O)NC(=O)[C@H](CO)NC(=O)[C@@H](NC(=O)[C@H](Cc3ccccc3)NC(=O)[C@@H](NC(=O)CNC(=O)[C@H](CCC(N)=O)NC(=O)C(C)(C)NC(=O)[C@@H](N)Cc3c[nH]cn3)[C@@H](C)O)[C@@H](C)O)C(=O)N[C@@H](CCC(N)=O)C(=O)N[C@@H](C)C(=O)N[C@@H](C)C(=O)N2)[C@@H](C)CC)C(=O)N[C@@H](Cc2c[nH]c3ccccc23)C(=O)N[C@@H](CC(C)C)C(=O)N[C@@H](CC(C)C)C(=O)N[C@@H](CCC(N)=O)C(=O)N[C@H](C(=O)O)[C@@H](C)O)[C@@H](O)[C@H](O)[C@H]1O [EU-A1679]
0.026 | 0.114 | – | CCCCCCCCCCO[C@@H]1O[C@H](C(=O)NCCCC[C@H](NC(=O)[C@@H](NC(=O)[C@H](Cc2ccccc2)NC(=O)[C@H](CCC(=O)O)NC(=O)[C@@H]2CCCCNC(=O)CC[C@H](NC(=O)[C@H](CC(=O)O)NC(=O)[C@H](CC(C)C)NC(=O)[C@H](Cc3ccc(O)cc3)NC(=O)[C@H](CCCCN)NC(=O)[C@H](CO)NC(=O)[C@H](Cc3ccc(O)cc3)NC(=O)[C@H](CC(=O)O)NC(=O)[C@H](CO)NC(=O)[C@@H](NC(=O)[C@H](Cc3ccccc3)NC(=O)[C@@H](NC(=O)CNC(=O)[C@H](CCC(N)=O)NC(=O)C(C)(C)NC(=O)[C@@H](N)Cc3c[nH]cn3)[C@@H](C)O)[C@@H](C)O)C(=O)N[C@@H](CCC(N)=O)C(=O)N[C@@H](C)C(=O)N[C@@H](C)C(=O)N2)[C@@H](C)CC)C(=O)N[C@@H](Cc2c[nH]c3ccccc23)C(=O)N[C@@H](CC(C)C)C(=O)N[C@@H](CC(C)C)C(=O)N[C@@H](CCC(N)=O)C(=O)N[C@H](C(=O)O)[C@@H](C)O)[C@@H](O)[C@H](O)[C@H]1O [EU-A1680]
0.009 | 0.132 | – | CCCCCCCCCCCCO[C@@H]1O[C@H](C(=O)NCCCC[C@H](NC(=O)[C@@H](NC(=O)[C@H](Cc2ccccc2)NC(=O)[C@H](CCC(=O)O)NC(=O)[C@@H]2CCCCNC(=O)CC[C@H](NC(=O)[C@H](CC(=O)O)NC(=O)[C@H](CC(C)C)NC(=O)[C@H](Cc3ccc(O)cc3)NC(=O)[C@H](CCCCN)NC(=O)[C@H](CO)NC(=O)[C@H](Cc3ccc(O)cc3)NC(=O)[C@H](CC(=O)O)NC(=O)[C@H](CO)NC(=O)[C@@H](NC(=O)[C@H](Cc3ccccc3)NC(=O)[C@@H](NC(=O)CNC(=O)[C@H](CCC(N)=O)NC(=O)C(C)(C)NC(=O)[C@@H](N)Cc3c[nH]cn3)[C@@H](C)O)[C@@H](C)O)C(=O)N[C@@H](CCC(N)=O)C(=O)N[C@@H](C)C(=O)N[C@@H](C)C(=O)N2)[C@@H](C)CC)C(=O)N[C@@H](Cc2c[nH]c3ccccc23)C(=O)N[C@@H](CC(C)C)C(=O)N[C@@H](CC(C)C)C(=O)N[C@@H](CCC(N)=O)C(=O)N[C@H](C(=O)O)[C@@H](C)O)[C@@H](O)[C@H](O)[C@H]1O [EU-A1681]
0.21 | 1.26 | – | CCCCCCCCCCCCCCO[C@@H]1O[C@H](C(=O)NCCCC[C@H](NC(=O)[C@@H](NC(=O)[C@H](Cc2ccccc2)NC(=O)[C@H](CCC(=O)O)NC(=O)[C@@H]2CCCCNC(=O)CC[C@H](NC(=O)[C@H](CC(=O)O)NC(=O)[C@H](CC(C)C)NC(=O)[C@H](Cc3ccc(O)cc3)NC(=O)[C@H](CCCCN)NC(=O)[C@H](CO)NC(=O)[C@H](Cc3ccc(O)cc3)NC(=O)[C@H](CC(=O)O)NC(=O)[C@H](CO)NC(=O)[C@@H](NC(=O)[C@H](Cc3ccccc3)NC(=O)[C@@H](NC(=O)CNC(=O)[C@H](CCC(N)=O)NC(=O)C(C)(C)NC(=O)[C@@H](N)Cc3c[nH]cn3)[C@@H](C)O)[C@@H](C)O)C(=O)N[C@@H](CCC(N)=O)C(=O)N[C@@H](C)C(=O)N[C@@H](C)C(=O)N2)[C@@H](C)CC)C(=O)N[C@@H](Cc2c[nH]c3ccccc23)C(=O)N[C@@H](CC(C)C)C(=O)N[C@@H](CC(C)C)C(=O)N[C@@H](CCC(N)=O)C(=O)N[C@H](C(=O)O)[C@@H](C)O)[C@@H](O)[C@H](O)[C@H]1O [EU-A1682]
0.026 | 0.065 | – | CCCCCCCCCCO[C@@H]1O[C@H](C(=O)NCCCC[C@H](N)C(=O)NCCCC[C@H](NC(=O)[C@@H](NC(=O)[C@H](Cc2ccccc2)NC(=O)[C@H](CCC(=O)O)NC(=O)[C@@H]2CCCCNC(=O)CC[C@H](NC(=O)[C@H](CC(=O)O)NC(=O)[C@H](CC(C)C)NC(=O)[C@H](Cc3ccc(O)cc3)NC(=O)[C@H](CCCCN)NC(=O)[C@H](CO)NC(=O)[C@H](Cc3ccc(O)cc3)NC(=O)[C@H](CC(=O)O)NC(=O)[C@H](CO)NC(=O)[C@@H](NC(=O)[C@H](Cc3ccccc3)NC(=O)[C@@H](NC(=O)CNC(=O)[C@H](CCC(N)=O)NC(=O)C(C)(C)NC(=O)[C@@H](N)Cc3c[nH]cn3)[C@@H](C)O)[C@@H](C)O)C(=O)N[C@@H](CCC(N)=O)C(=O)N[C@@H](C)C(=O)N[C@@H](C)C(=O)N2)[C@@H](C)CC)C(=O)N[C@@H](Cc2c[nH]c3ccccc23)C(=O)N[C@@H](CC(C)C)C(=O)N[C@@H](CC(C)C)C(=O)N[C@@H](CCC(N)=O)C(=O)N[C@H](C(N)=O)[C@@H](C)O)[C@@H](O)[C@H](O)[C@H]1O [EU-A1710]
0.009 | 0.026 | – | CCCCCCCCCCCCO[C@@H]1O[C@H](C(=O)NCCCC[C@H](N)C(=O)NCCCC[C@H](NC(=O)[C@@H](NC(=O)[C@H](Cc2ccccc2)NC(=O)[C@H](CCC(=O)O)NC(=O)[C@@H]2CCCCNC(=O)CC[C@H](NC(=O)[C@H](CC(=O)O)NC(=O)[C@H](CC(C)C)NC(=O)[C@H](Cc3ccc(O)cc3)NC(=O)[C@H](CCCCN)NC(=O)[C@H](CO)NC(=O)[C@H](Cc3ccc(O)cc3)NC(=O)[C@H](CC(=O)O)NC(=O)[C@H](CO)NC(=O)[C@@H](NC(=O)[C@H](Cc3ccccc3)NC(=O)[C@@H](NC(=O)CNC(=O)[C@H](CCC(N)=O)NC(=O)C(C)(C)NC(=O)[C@@H](N)Cc3c[nH]cn3)[C@@H](C)O)[C@@H](C)O)C(=O)N[C@@H](CCC(N)=O)C(=O)N[C@@H](C)C(=O)N[C@@H](C)C(=O)N2)[C@@H](C)CC)C(=O)N[C@@H](Cc2c[nH]c3ccccc23)C(=O)N[C@@H](CC(C)C)C(=O)N[C@@H](CC(C)C)C(=O)N[C@@H](CCC(N)=O)C(=O)N[C@H](C(N)=O)[C@@H](C)O)[C@@H](O)[C@H](O)[C@H]1O [EU-A1711]
0.037 | – | 0.175 | CCCCCCCCCCCCCCO[C@@H]1O[C@H](C(=O)NCCCC[C@H](N)C(=O)NCCCC[C@H](NC(=O)[C@@H](NC(=O)[C@H](Cc2ccccc2)NC(=O)[C@H](CCC(=O)O)NC(=O)[C@@H]2CCCCNC(=O)CC[C@H](NC(=O)[C@H](CC(=O)O)NC(=O)[C@H](CC(C)C)NC(=O)[C@H](Cc3ccc(O)cc3)NC(=O)[C@H](CCCCN)NC(=O)[C@H](CO)NC(=O)[C@H](Cc3ccc(O)cc3)NC(=O)[C@H](CC(=O)O)NC(=O)[C@H](CO)NC(=O)[C@@H](NC(=O)[C@H](Cc3ccccc3)NC(=O)[C@@H](NC(=O)CNC(=O)[C@H](CCC(N)=O)NC(=O)C(C)(C)NC(=O)[C@@H](N)Cc3c[nH]cn3)[C@@H](C)O)[C@@H](C)O)C(=O)N[C@@H](CCC(N)=O)C(=O)N[C@@H](C)C(=O)N[C@@H](C)C(=O)N2)[C@@H](C)CC)C(=O)N[C@@H](Cc2c[nH]c3ccccc23)C(=O)N[C@@H](CC(C)C)C(=O)N[C@@H](CC(C)C)C(=O)N[C@@H](CCC(N)=O)C(=O)N[C@H](C(N)=O)[C@@H](C)O)[C@@H](O)[C@H](O)[C@H]1O [EU-A1712]
0.308 | 2.51 | – | CCCCCCCCCCCCCCCCO[C@@H]1O[C@H](C(=O)NCCCC[C@H](N)C(=O)NCCCC[C@H](NC(=O)[C@@H](NC(=O)[C@H](Cc2ccccc2)NC(=O)[C@H](CCC(=O)O)NC(=O)[C@@H]2CCCCNC(=O)CC[C@H](NC(=O)[C@H](CC(=O)O)NC(=O)[C@H](CC(C)C)NC(=O)[C@H](Cc3ccc(O)cc3)NC(=O)[C@H](CCCCN)NC(=O)[C@H](CO)NC(=O)[C@H](Cc3ccc(O)cc3)NC(=O)[C@H](CC(=O)O)NC(=O)[C@H](CO)NC(=O)[C@@H](NC(=O)[C@H](Cc3ccccc3)NC(=O)[C@@H](NC(=O)CNC(=O)[C@H](CCC(N)=O)NC(=O)C(C)(C)NC(=O)[C@@H](N)Cc3c[nH]cn3)[C@@H](C)O)[C@@H](C)O)C(=O)N[C@@H](CCC(N)=O)C(=O)N[C@@H](C)C(=O)N[C@@H](C)C(=O)N2)[C@@H](C)CC)C(=O)N[C@@H](Cc2c[nH]c3ccccc23)C(=O)N[C@@H](CC(C)C)C(=O)N[C@@H](CC(C)C)C(=O)N[C@@H](CCC(N)=O)C(=O)N[C@H](C(N)=O)[C@@H](C)O)[C@@H](O)[C@H](O)[C@H]1O [EU-A1713]
